{"source": "patent US20040087564A1", "about": "“Delivery composition and method” (priority 2002, published 2004)", "origin": "cited, not measured here", "data": [{"smiles": "C[C@]12CC[C@H]3[C@@H](CCC4=CC(=O)CC[C@@]43C)[C@@H]1CC[C@@H]2O", "note": "[testosterone]", "values": [{"measurement": "true testosterone disposition half-life", "setting": "in rabbits", "result": "~15", "unit": "min"}, {"measurement": "testosterone clearance", "setting": "male rabbit, Bourget et al., Steroids 43:225-233 (1984)", "result": 29.2, "unit": "mL/min/kg"}]}]}
